Data on eight compounds can be found in article PMC2713365 (International journal for parasitology, 2009).

Test [1] deals with T1, AsGAR-1 (Ascaris suum, UniProt C0KJK1). Put plainly: yeast functional expression, antagonism of […] ACh by […] compound. The class given is cell-based. Conditions: read-out: % inhibition at 10^-4 M.
The target of test [2] is T1, AsGAR-1. Description: cell-based. Conditions: read-out: yeast functional expression, growth reporter, agonist at 10^-4 M.
Test [3] deals with T1, AsGAR-1. Put plainly: yeast functional expression, antagonism of […] ACh by […] compound. The class given is cell-based. Conditions: read-out: % of control growth at 10^-4 M.

The structures appear in SMILES notation.

On to `CN1[C@@H]2CC[C@H]1C[C@@H](OC(=O)C(CO)c1ccccc1)C2` (some centres unmarked) [Atr, atropine], for which, on AsGAR-1 [1], the inhibition – broadly, the drop in the measured response relative to a control, in per cent – at 100 µM amounted to 62.2%.

Take `COC(=O)C1=CCCN(C)C1` [Arec, arecoline]: the fold induction at 100 µM at AsGAR-1 [2] was 10.2 ± 1.6.

For `CN1CCN2c3ccccc3Cc3ccccc3C2C1` (centres unmarked) [Mian, mianserin], on AsGAR-1 [3], the remaining activity at 100 µM was found to be 24 ± 0.1%.

For `C[N+](C)(C)CCOC(N)=O` [Carb, carbachol], the fold induction at 100 µM at AsGAR-1 [2] is 10.8 ± 1.7.

In the case of `C[N+](C)(C)CC#CCN1CCCC1=O` [Oxo, oxotremorine M], the fold induction at 100 µM on AsGAR-1 [2] was 8.2 ± 1.7.

As to `CC(C)NCC(O)COc1cccc2ccccc12` (centres unmarked) [Prop, propranolol], on AsGAR-1 [3], the remaining activity at 100 µM came out at 41.2 ± 8.9%.

Regarding `O=C(CCCN1CCC2(CC1)C(=O)NCN2c1ccccc1)c1ccc(F)cc1` [Spip, spiperone], the remaining activity at 100 µM on AsGAR-1 [3] stood at 52.8 ± 7.6%.

Take `CC(C[N+](C)(C)C)OC(N)=O` (centres unmarked) [Beth, bethanechol]: at AsGAR-1 [2], the fold induction at 100 µM is 7.7 ± 0.8.
